Read-outs that look alike come from different tables or passages of the source.
Legend:
[1] = tested on: CYP1A1 in human HepG2 cells; assay: EROD assay (7-ethoxy-resorufin-O-deethylase), human HepG2 cells; assay type: cell-based; details: EROD assay, human HepG2 cells, 20 hours treatment
Description: (§1) CYP1A1 induction is under the control of the AhR signaling pathway. This Example describes an in vitro assay (7-ethoxy-resorufin-O-deethylase (EROD) assay) that evaluated the AhR modulating activities of the indole compounds described herein. In this assay, the indole compounds were incubated with human HepG2 cells or mouse Hepal-6 cells. The activity of CYP1A1 in the cells was measured by the conversion of substrate 7-ethoxyresorufin, with the readout being a fluorescence signal associated with the conversion product. The EC50 values of the indole compounds as well as the maximum […] induced by them in the assay were determined.
(§2) Human HepG2 cells were obtained from Sigma Aldrich (Catalog 85011430-1VL). Mouse Hepal-6 cells also were obtained from Sigma Aldrich (Catalog 92110305-1V).
(§3) Human HepG2 and Mouse Hepal-6 cells were grown to 60-80% confluency in tissue culture flasks, lifted with non-enzymatic cell dissociation solution (cell stripper), seeded in a 384-well plate at 5,000 cells per well, treated with the test compounds, and incubated for 20 hours overnight at 37° C. The treatment medium was removed and a solution of substrate 7-ethoxyresorufin (ETX) was added to initiate the reaction. The plate was incubated at 37° C. for 30 minutes. The reaction was subsequently terminated by adding tempered methanol. Fluorescent emission was measured at 590 nm with excitation at 530 nm in a FLEXSTATION III instrument (Molecular Devices).

[2] = tested on: CYP1A1 in mouse Hepal-6 cells; assay: EROD assay (7-ethoxy-resorufin-O-deethylase), mouse Hepa1-6 cells; assay type: cell-based; details: EROD assay, 20 hours treatment
Description: as §1, §2, §3

[3] = In vivo pharmacokinetic study in Sprague-Dawley rats; details: rat
Description: This example describes pharmacokinetic (PK) studies of the various indole compounds described herein in rats, a rodent species widely used for pre-clinical toxicology evaluation. In the present studies, the test compounds were given to groups of Sprague-Dawley rats (N=3 in each group) intravenously (IV) at 2 mg/kg or orally (PO) at 10 mg/kg. IV doses were formulated in DMSO, while PO doses were formulated in a 50/50 mixture of PEG400 and Tween 80. Blood samples were collected at pre-dose and over a period of 24 hours post-dose. Plasma concentrations of the indole compounds were determined by HPLC.

[4] = tested on: EMT-6 syngeneic mouse tumor model (breast cancer); assay: Anti-tumor activity, EMT-6 syngeneic mouse tumor model; assay type: in vivo; details: for inhibition in vivo at 40 mg/kg: Mus musculus, EMT6, ip, read-out: TGI (tumor growth inhibition)
Description: (§4) This example describes in vivo studies that evaluated the anti-cancer efficacy of the disclosed indole compounds in syngeneic mouse tumor models. Mice implanted subcutaneously with four types of cancer cells were treated with test indole compounds or vehicle controls as described below.
(§5) A monolayer culture of tumor cells was maintained in vitro in DMEM or RPMI1640 medium supplemented with 10% fetal bovine serum at 37° C. in an atmosphere of 5% CO2. Cells in exponential growth phase were harvested and quantitated by cell counter before tumor inoculation. The cell lines used are described in the table below.
(§6) Four subcutaneous syngeneic mouse tumor models were generated by innoculating female BALB/C or C57BL/6 mice with cancer cells at their right lower or front flank as detailed in the table below:
(§7) Each mouse was inoculated subcutaneously with tumor cells in 0.1 mL of PBS. Treatments were started when the mean tumor size reached approximately 80-120 mm^3 (around 100 mm^3). The administration of the indole compounds and the animal number in each study group are shown in the study design. The date of tumor cell inoculation was denoted as day 0.
(§8) The indole compounds were dissolved in DMSO at the final concentration of 26.7 mg/ml and stored at room temperature.
(§9) Randomization of animals was started when the mean tumor size reached approximately 90 mm^3 to form the mouse study groups. The randomization was performed based on “Matched distribution” method using the multi-task method (StudyDirector™ software, version 3.1.399.19)/randomized block design. The mouse groups (ten in each group) were treated with vehicle (DMSO) or the indole compounds at a dose of 40 mg/kg by i.p. injection, QD for 28 days or longer.
(§10) After tumor cell inoculation, the mice were checked daily for morbidity and mortality. During routine monitoring, the mice were checked for tumor growth and any effects of the treatment on behavior such as mobility, food and water consumption, body weight gain/loss (body weights were measured twice per week after randomization), eye/hair matting, and any other abnormalities. Mortality and observed clinical signs were recorded for individual mice in detail.
(§11) Tumor volumes were measured twice per week in two dimensions using a caliper, and the volume was expressed in mm^3 using the formula: V=(L×W×W)/2, where V is tumor volume, L is tumor length (the longest tumor dimension) and W is tumor width (the longest tumor dimension perpendicular to L). Dosing as well as tumor and body weight measurements was conducted in a Laminar Flow Cabinet. The body weights and tumor volumes were measured by using StudyDirector™ software (version 3.1.399.19). Dosing Holiday
Tumor growth inhibition percentage (TGI %) is an indicator for antitumor activity of a drug compound, and expressed as: TGI (%)=100×(1−T/C), where T and C are the mean tumor volume (or weight) of the treated and control groups, respectively, on a given day. Statistical analysis of the difference in mean tumor volume (MTV) among the groups was conducted using the data collected on the day when the MTV of the vehicle group reached the humane endpoints, so that TGI could be derived for all or most mice enrolled in the study.
In Studies 1 and 3, the anti-tumor activity of ARI-001 in parallel with ARI-002 at 160 mg/kg (mpk), and the anti-tumor activity of ARI-087 in parallel with ARI-002 at 40 mpk were assessed using the EMT-6, Pan02, A20, and LL/2 models. Because EMT-6 provides a fast-growing model that enables relatively quick differentiation of performance between compounds, this syngeneic mouse tumor model was chosen for the other studies. In Study 2, the anti-tumor activity of ARI-002 was compared with that of ARI-004 at 10, 40, and 80 mpk. In Study 4, the anti-tumor activity of ARI-087 was compared with that of ARI-140. In Study 5, the anti-tumor activity of ARI-087 was evaluated in parallel with ARI-143 and ARI-149 at 40 mpk. […]

[5] = tested on: Pan02 syngeneic mouse tumor model (pancreatic cancer); assay: Anti-tumor activity, Pan02 syngeneic mouse tumor model; assay type: in vivo; details: Study 3, Pan02, 40 mpk i.p. QD, D60
Description: as §4, §5, §6, §7, §8
Randomization of animals was started when the mean tumor size reached approximately 90 mm^3 to form the mouse study groups. […]
as §10
as §11, with “Dosing as well as tumor and body weight measurements was conducted in a Laminar Flow Cabinet.” left out, “Dosing Holiday” left out
(§12) Tumor growth inhibition percentage (TGI %) is an indicator for antitumor activity of a drug compound, and expressed as: TGI (%)=100×(1−T/C), where T and C are the mean tumor volume (or weight) of the treated and control groups, respectively, on a given day. […]
In Studies 1 and 3, the anti-tumor activity of ARI-001 in parallel with ARI-002 at 160 mg/kg (mpk), and the anti-tumor activity of ARI-087 in parallel with ARI-002 at 40 mpk were assessed using the EMT-6, Pan02, A20, and LL/2 models. […]

[6] = tested on: A20 syngeneic mouse tumor model (B cell lymphoma); assay: Anti-tumor activity, A20 syngeneic mouse tumor model; assay type: in vivo
Description: as §4, §5, §6, §7, §8, §9, §10, §11, §12
(§13) In Studies 1 and 3, the anti-tumor activity of ARI-001 in parallel with ARI-002 at 160 mg/kg (mpk), and the anti-tumor activity of ARI-087 in parallel with ARI-002 at 40 mpk were assessed using the EMT-6, Pan02, A20, and LL/2 models. […] In Study 5, the anti-tumor activity of ARI-087 was evaluated in parallel with ARI-143 and ARI-149 at 40 mpk. […]

[7] = tested on: LL/2 syngeneic mouse tumor model (lung cancer); assay: Anti-tumor activity, LL/2 syngeneic mouse tumor model; assay type: in vivo
Description: as §4, §5, §6, §7, §8, §9, §10, §11, §12, §13

[8] = tested on: hepatocytes; assay: Metabolite analysis in hepatocytes by high-resolution mass spectrometry; assay type: in vitro ADME; details: preliminary studies
From the text: It remains unclear whether halogen substitutions at the indole ring impact the activity and metabolic profiles of the indole compounds described herein.

CCC(=O)c1csc(C(=O)c2c[nH]c3ccc(F)cc23)n1 [ARI-087, 1-(2-(5-fluoro-1H-indole-3-carbonyl)thiazol-4-yl)propan-1-one]
EC50 [1]: 34.2 nM | EC50 [2]: 5.8 nM | bioavailability ([3]; Sprague-Dawley, plasma, po, 10 mg/kg, PO (10 mg/kg) vs IV (2 mg/kg), read-out: F % (bioavailability)): 19.7% | IV AUCinf, % of that of ARI-002 ([3]; IV): 45% | plasma clearance, times higher than ARI-002 ([3]; IV): 3.2 times | % of Hepatisc Blood Flow ([3]; IV (2 mg/kg)): 84% | PO AUCinf, % of that of ARI-002 ([3]; PO): 81% | absolute oral bioavailability, times higher than ARI-002 ([3]; PO): 1.8 times | anti-tumor potency, in words ([4]; EMT-6 model, 40 mpk): better tumor inhibitory activity than parent compound ARI-002 | tumor growth and survival, in words ([4]; EMT-6 model, 40 mpk): delayed tumor growth and prolonged survival | complete tumor regression (CR) ([4]; EMT-6 model, Study 4, by day 46): did not result in a CR until day 81 | complete tumor regression (CR) ([4]; EMT-6 model, Study 5, by day 51): did not have any animal in CR | animals with tumor volumes<1000 mm^3 ([4]; EMT-6 model, day 27, 40 mpk): 6 out of 10 | inhibition in vivo at 40 mg/kg ([4]; 624 h, Study 6, EMT-6, 40 mpk i.p. QD, D26): 52.8% | inhibition in vivo at 40 mg/kg ([4]; 648 h, Study 3, EMT-6, 40 mpk i.p. QD, D27): 56.7% | inhibition in vivo at 40 mg/kg ([4]; 672 h, Study 4, EMT-6, 40 mpk i.p. QD, D28): 29.5% | inhibition in vivo at 40 mg/kg ([4]; 720 h, Study 5, EMT-6, 40 mpk i.p. QD, D30): 42.2% | TGI (tumor growth inhibition) [5]: 64.9% D60 | TGI (tumor growth inhibition) ([6]; Study 3, A20, 40 mpk i.p. QD, D28): 20.9% D28 | tumor inhibitory activity compared to ARI-002, in words ([6]; Study 3, lymphoma model, 40 mpk): better tumor inhibitory activity than parent compound ARI-002 | TGI (tumor growth inhibition) ([7]; Study 3, LL/2, 40 mpk i.p. QD, D38): 23.3% D38 | tumor inhibitory activity compared to ARI-002, in words ([7]; Study 3, lung model, 40 mpk): better tumor inhibitory activity than parent compound ARI-002 | primary metabolites of the indole ring identified [8]: fewer primary metabolites of the indole ring

From US11891386B2, “Indole compounds and their use” (ARIAGEN, INC., priority 2017, dated 2024)
